Patent US8119643B2, “Benzoimidazolyl-pyrazine compounds for inflammation and immune-related uses” (Synta Pharmaceuticals Corp., priority 2006, dated 2012)
“Also recorded” adds a separate entry of the source.

Key:
IL-2 production = assay: Inhibition of IL-2 production in PHA-activated Jurkat cells (ELISA); type: cell-based; conditions: Homo sapiens, PHA 2.5 μg/mL, 20 hours, IL-2 ELISA
Method: Jurkat cells were placed in a 96 well plate (0.5 million cells per well in 1% FBS medium) then a test compound of this invention was added at different concentrations. After 10 minutes, the cells were activated with PHA (final concentration 2.5 μg/mL) and incubated for 20 hours at 37° C. under CO2. The final volume was 200 μL. Following incubation, the cells were centrifuged and the supernatants were collected and stored at −70° C. prior to assaying for IL-2 production. A commercial ELISA kit (IL-2 Eli-pair, Diaclone Research, Besancon, France) was used to detect production of IL-2, from which dose response curves were obtained. The IC50 value was calculated as the concentration at which 50% of maximum IL-2 production after stimulation was inhibited versus a non-stimulation control.

[1] = system: Delayed-Type Hypersensitivity (DTH) reaction; assay: Inhibition of delayed-type hypersensitivity (DTH) reaction in rats; type: in vivo, Lewis rats; conditions: rat DTH; for Inhibition of gross change (%) Ear thickness (mm) / Inhibition of gross change (%) Ear weight (mg): 15 mg/kg orally at −2, +3, +9 hr, 24 hr after OVA challenge, relative to vehicle-treated group; for effect on ear weight after ovalbumin challenge / effect on ear thickness after ovalbumin challenge: compared to vehicle alone; for effect on ear weight after ovalbumin challenge: FIGS. 1 and 2; for effect on ear thickness after ovalbumin challenge: FIGS. 3 and 4
Method: Lewis rats (n=7 each group) were sensitized with chicken ovalbumin (OVA; Sigma, A5503) and complete Freund's adjuvant (CFA; Sigma F5881) was injected into tail base by s.c. on day 0. On day 7, the animals were challenged with ovalbumin (OVA) on their right ears.
Compounds 1 and 10 were prepared in vehicle solution (20% Vitamin E TPGS and 80% PEG-8).
Female Lewis rats, 6-8 weeks of age, were obtained from Charles River Laboratories and permitted to acclimate for one week prior to experimental procedures. Rodents were allowed water and food ad libitum. Animals were housed in accordance with the Institutional Animal Care and Use Committee (IACUC), and experiments were performed in compliance with IACUC guidelines.
Rat ears were measured with a dial thickness gauge (Mitutoyo gauge #8, Mitutoyo, USA). The swelling response was calculated by subtracting the ear thickness before challenge (baseline) from that of the same ear after challenge. To measure the ear weight, both left and right ears of euthanized rats were punched out with cork holer, the ear weight change was calculated by subtracting the saline-treated left ear weight from that of the OVA-challenged right ear weight.
Delayed-type hypersensitivity is an in vivo T cell-dependent immune response manifested as an inflammatory reaction that reaches peak intensity 24 hr after OVA challenge. To determine the immunosuppressive effect of Compounds 1 and 10 in the rat DTH reaction, groups of rats (n=7) were administered with either vehicle, Compound 1 or Compound 10, orally three times, starting 2 hr before ear challenge, and 3 and 9 hr after ear challenge.

IC50 (IL-2 production) [nM] | Compound | further results
29 | COC(=O)c1ccc2c(c1)nc(C(F)(F)F)n2-c1cnc(NC(=O)c2c(F)cccc2F)cn1 [Compound 25, 1-[5-(2,6-Difluoro-benzoylamino)-pyrazin-2-yl]-2-trifluoromethyl-1H-benzoimidazole-5-carboxylic acid methyl ester] | –
> 1000 | COc1ccc2c(c1)nc(C(F)(F)F)n2-c1cnc(NC(=O)c2ccc([N+](=O)[O-])c(OC)c2)cn1 [Compound 147, 3-Methoxy-N-[5-(5-methoxy-2-trifluoromethyl-benzoimidazol-1-yl)-pyrazin-2-yl]-4-nitro-benzamide] | –
73 | COc1ccc2c(c1)nc(C(F)(F)F)n2-c1cnc(NC(=O)c2cc(C)ccc2C)cn1 [Compound 122, N-[5-(5-Methoxy-2-trifluoromethyl-benzoimidazol-1-yl)-pyrazin-2-yl]-2,5-dimethyl-benzamide] | –
384 | COc1ccc2c(c1)nc(C(F)(F)F)n2-c1cnc(NC(=O)c2ccc(Cl)cc2)cn1 [Compound 91, 4-Chloro-N-[5-(5-methoxy-2-trifluoromethyl-benzoimidazol-1-yl)-pyrazin-2-yl]-benzamide] | –
79 | COc1ccc2c(c1)nc(C(F)(F)F)n2-c1cnc(NC(=O)c2ccncc2F)cn1 [Compound 3, 3-Fluoro-N-[5-(5-methoxy-2-trifluoromethyl-benzoimidazol-1-yl)-pyrazin-2-yl]-isonicotinamide] | –
929 | COc1cccc(C(=O)Nc2cnc(-n3c(C(F)(F)F)nc4cc(OC)ccc43)cn2)c1 [Compound 104, 3-Methoxy-N-[5-(5-methoxy-2-trifluoromethyl-benzoimidazol-1-yl)-pyrazin-2-yl]-benzamide] | –
105 | COc1ccc(C(=O)Nc2cnc(-n3c(C(F)(F)F)nc4cc(OC)ccc43)cn2)c(F)c1 [Compound 127, 2-Fluoro-4-methoxy-N-[5-(5-methoxy-2-trifluoromethyl-benzoimidazol-1-yl)-pyrazin-2-yl]-benzamide] | –
99 | COc1ccc2c(c1)nc(C(F)(F)F)n2-c1cnc(NC(=O)c2ccccc2C(F)(F)F)cn1 [Compound 145, N-[5-(5-Methoxy-2-trifluoromethyl-benzoimidazol-1-yl)-pyrazin-2-yl]-2-trifluoromethyl-benzamide] | –
12 | COc1ccc2c(c1)nc(C(F)(F)F)n2-c1cnc(NC(=O)c2ccccc2C)cn1 [Compound 10, N-[5-(5-Methoxy-2-trifluoromethyl-benzoimidazol-1-yl)-pyrazin-2-yl]-2-methyl-benzamide] | Inhibition of gross change (%) Ear thickness (mm) [1]: 15%; Inhibition of gross change (%) Ear weight (mg) [1]: 24%; effect on ear weight after ovalbumin challenge [1]: even stronger effect on reducing ear thickness and weight after challenge than Compound 1; also recorded: reduced ear thickness and weight after challenge more than dosing with cyclosporine A; effect on ear thickness after ovalbumin challenge [1]: even stronger effect on reducing ear thickness and weight after challenge than Compound 1; also recorded: reduced ear thickness and weight after challenge more than dosing with cyclosporine A
20 | COc1ccc2c(c1)nc(C(F)(F)F)n2-c1cnc(NC(=O)c2ccccc2F)cn1 [Compound 5, 2-Fluoro-N-[5-(5-methoxy-2-trifluoromethyl-benzoimidazol-1-yl)-pyrazin-2-yl]-benzamide] | –
22 | COc1ccc2c(c1)nc(C(F)(F)F)n2-c1cnc(NC(=O)c2cccc(Cl)c2Cl)cn1 [Compound 113, 2,3-Dichloro-N-[5-(5-methoxy-2-trifluoromethyl-benzoimidazol-1-yl)-pyrazin-2-yl]-benzamide] | –
780 | COc1ccc2c(c1)nc(C(F)(F)F)n2-c1cnc(NC(=O)c2cccc(C(F)(F)F)c2)cn1 [Compound 125, N-[5-(5-Methoxy-2-trifluoromethyl-benzoimidazol-1-yl)-pyrazin-2-yl]-3-trifluoromethyl-benzamide] | –
> 1000 | COc1ccc2c(c1)nc(C(F)(F)F)n2-c1cnc(NCC2CCCCC2)cn1 [Compound 73, Cyclohexylmethyl-[5-(5-methoxy-2-trifluoromethyl-benzoimidazol-1-yl)-pyrazin-2-yl]-amine] | –
> 1000 | COc1ccc2c(c1)nc(C(F)(F)F)n2-c1cnc(NC(=O)c2ccc(Cl)c([N+](=O)[O-])c2)cn1 [Compound 139, 4-Chloro-N-[5-(5-methoxy-2-trifluoromethyl-benzoimidazol-1-yl)-pyrazin-2-yl]-3-nitro-benzamide] | –
83 | COc1ccc2c(c1)nc(C(F)(F)F)n2-c1cnc(NC(=O)c2ccc(F)cc2Br)cn1 [Compound 138, 2-Bromo-4-fluoro-N-[5-(5-methoxy-2-trifluoromethyl-benzoimidazol-1-yl)-pyrazin-2-yl]-benzamide] | –
150 | COc1ccc2c(c1)nc(C(F)(F)F)n2-c1cnc(NC(=O)c2ccc(F)cc2)cn1 [Compound 86, 4-Fluoro-N-[5-(5-methoxy-2-trifluoromethyl-benzoimidazol-1-yl)-pyrazin-2-yl]-benzamide] | –
> 1000 | COc1ccc2c(c1)nc(C(F)(F)F)n2-c1cnc(NC(=O)c2ccc(C(F)(F)F)cc2OC)cn1 [Compound 144, 2-Methoxy-N-[5-(5-methoxy-2-trifluoromethyl-benzoimidazol-1-yl)-pyrazin-2-yl]-4-trifluoromethyl-benzamide] | –

Compound | IC50 (IL-2 production) [nM] | further results
COc1ccc2c(c1)nc(C(F)(F)F)n2-c1cnc(NC(=O)c2c(F)cccc2F)cn1 [Compound 1, 2,6-Difluoro-N-[5-(5-methoxy-2-trifluoromethyl-benzoimidazol-1-yl)-pyrazin-2-yl]-benzamide] | 6 | Inhibition of gross change (%) Ear thickness (mm) [1]: 77%; Inhibition of gross change (%) Ear weight (mg) [1]: 79%; effect on ear weight after ovalbumin challenge [1]: decreased ear weight; also recorded: significantly inhibited; effect on ear thickness after ovalbumin challenge [1]: decreased ear thickness; also recorded: significantly inhibited
